These results are taken from patent US20220305048A1, “USE OF HEPARIN TO PROMOTE TYPE 1 INTERFERON SIGNALING” (Dana-Farber Cancer Institute, Inc., priority 2019, published 2022).

For test [1], the system named is 631M/RPPM mouse SCLC cells. The test can be described thus: CXCL10 ELISA of conditioned media, STING agonists +/- heparins. In kind it is cell-based. The following applies: for interaction between heparin and STING agonist (CXCL10 ELISA): 24 hours, p<0.0001 by 2-WAY ANOVA (FIG. 3C); for interaction between heparin and STING agonist on the amount of CXCL10 in the media: +/- 1 μg/mL heparin, 1 or 10 μg/mL cGAMP, 50 μM ADU, 0.2 mg/ml CMA, 24 hours (FIG. 3A). The protocol: (§1) 1 mL of conditioned media from each treatment plate was collected after 24 hr culture unless otherwise specified. The collected media was centrifuged at 1400 RPM for 3 minutes to remove any cellular debris before use in the ELISA. Values represent the average of at least two independent biological replicates.

Test [2] concerns BEN-MEN-1 meningioma cells. The test can be described thus: CXCL10 ELISA of conditioned media, ADU S-100 dose and time course +/- heparin. The test is classed as cell-based. The following applies: 50 μg/mL and 100 μg/mL ADU-S100, heparin 10 μg/mL, 24 hours. The protocol:
FIGS. 3A to 3B include plots showing that heparin dose-dependently enhances STING agonist effects across compounds. […] FIG. 3D includes a plot of showing the time course data for BenMen 1 cells with treatment for 3 and 6 days. The data reflects 24 hours treatment prior to collection of conditioned media for CXCL10 ELISA FIG. 3E includes plots showing RPPM mouse SCLC cells treated with 1 μg/mL 2,3-cGAMP and 1 μg/mL unfractionated heparin, low-molecular weight heparin (LMWH), heparin pentasaccharide fondaparinux, 6-desulfated heparin, chondroitin sulfate (CS)+/−the Janus kinase/signal transducers and activators of transcription (JAK/STAT) inhibitor ruxolitinib (ruxo 1 μg/mL) for 24 hours prior to CXCL10 ELISA. H69M human SCLC cells treated with 10 μg/mL 2,3-cGAMP+/−heparin 10 μg/mL or desulfated heparins 2-O desulfated (2DES), N-desulfated (NDES), and 6-O desulfated (6DES) 24 hours prior to CXCL10 ELISA. All panels reflect 24 hours treatment prior to collection of conditioned media for CXCL10 ELISA.
A 24-hour dose response study was also conducted on BEN-MEN-1 meningioma cells (hereafter “BenMen 1 cells”) and RPPM mouse SCLC cells. BenMen 1 cells were treated with various doses of ADU S-100 (0, 10, 20, 30, 50, and 100 μg/mL) either in the presence or absence of heparin (10 μg/mL). […]
A general note: In an ELISA, binding on a coated surface is turned into a signal by an enzyme label.

Test [3] deals with BenMen 1 cells; RPPM mouse SCLC and MS428 human mesothelioma cell lines. The test can be described thus: STING pathway western blot and CXCL10 ELISA with TBK1 or JAK/STAT inhibitor. The test is classed as cell-based. The following applies: MRT TBK1 inhibitor 1 μM or 5 μM; ruxolitinib 1 μM. The protocol:
FIG. 4A includes immunofluorescent images of fixed hLFB cells after 24 hours of treatment with cyanine-5 (Cy5) labeled 2,3-cGAMP 1 μg/mL+/−heparin 1 μg/mL. The staining represents actin phalloidin, DAPI (4′,6-diamidino-2-phenylindole), and Cy5-labeled cGAMP. FIG. 4B includes a western blot for STING pathway components in BEN-MEN-1 meningioma cells treated for 72 hours with 50 μM ADU+/−heparin 10 μg/mL and MRT TANK-binding kinase-1 (TBK1) inhibitor 5 μM. FIG. 4C includes plots showing CXCL10 ELISA after 24 hours treatment with 2,3-cGAMP (1 μg/mL) or ADU S-100 (50 μM unless otherwise indicated)+/−heparin (1 μg/mL in RPPM or 10 μg/mL in MS428), MRT TBK1 inhibitor 1 μM, or ruxolitinib JAK/STAT inhibitor (“ruxo”; ruxolitinib) 1 μM in RPPM mouse SCLC and MS428 human mesothelioma cell lines. FIG. 4D includes a plot showing the qPCR for Programmed death-ligand 1 (PD-L1) after 24 hours treatment 50 μM ADU+/−heparin 10 μg/mL and MRT TBK1 inhibitor in BEN-MEN-1 meningioma cells. ANOVA p<0.001 for all graphs. *p<0.05 ****p<0.0001 by Bonferroni corrected pairwise comparison.
The serine/threonine protein kinase, TBK1, is a critical regulator in innate immune signaling pathways that lead to the induction of type I interferon (IFN) and interferon-stimulated genes (ISGs). Dysregulation of TBK1 activity is often associated with autoimmune diseases and cancer. […]

Test [4] deals with H196 SCLC and MS428 meningioma cells. The test can be described thus: Luminex cytokine array. In kind it is cell-based, human. The note with it: 5 μM MRT TBK1 inhibitor. As for the experimental part: FIGS. 19A to 19B includes diagrams showing that heparin alters the release of multiple cytokines after STING agonist treatment. […] L2FC=LOG2 fold change.
The influence of heparin (with and without a STING agonist) on IL-6 and IL-8 levels was examined. […] This effect was reversed by MRT TBK1 inhibitor.
Multiplex assays were performed utilizing the Human Cytokine/Chemokine Maganetic Bead Panel (Cat. #HCYTMAG-60K-PX30) on a Luminex MAGPIX system (Merck Millipore). Conditioned media concentrations (pg/ml) for each cytokine were derived from parameter curve fitting models. Fold changes relative to the corresponding control were calculated and plotted as log 2FC.

The subject of test [5] is B16F10 mouse melanoma cells; Lewis Lung Carcinoma (LLC) mouse non-small-cell lung cancer cells. The test can be described thus: CXCL10 ELISA of conditioned media, interferons +/- heparin. The following applies: interferon 5 ng/mL +/- heparin 1 μg/mL, 24 hours. In kind it is cell-based. As for the experimental part: as §1
In test [6] the test system is Human lung fibroblasts (hLFB). The test can be described thus: CXCL10 qPCR, 2,3-cGAMP +/- heparin. The test is classed as cell-based. The note with it: 2,3-cGAMP 1 μg/mL, 24 hours. The protocol: FIG. 2 includes plots showing that heparin enhances STING agonist activity. FIG. 2A includes plots showing human lung fibroblasts (hLFB) and H69-mesenchymal (H69M) small cell lung cancer (SCLC) cells treated with 2,3-cGAMP 1 μg/mL+/−heparin 1 μg/mL for 24 hours prior to CXCL10 qPCR and collection of conditioned media for C—X—C motif chemokine 10 (CXCL10) ELISA (enzyme-linked immunosorbent assay). […] THP1=differentiated macrophages. hLFB=human lung fibroblasts. MEF=mouse embryonic fibroblasts. HUE=human umbilical endothelial cells. ANOVA p<0.001 for all figures. *p<0.05 ****p<0.0001 by Bonferroni corrected pairwise comparison.
Also, Human lung fibroblasts (hLFB) were treated with 2,3-cGAMP 1 μg/mL (hereafter referred to as “cGAMP)+/−heparin 1 μg/mL for 24 hours prior to CXCL10 qPCR and collection of conditioned media for CXCL10 ELISA (FIG. 2A).
RNA extraction was performed using the RNeasy Mini Kit (Qiagen, Cat. #74106). RNA samples (1000 ng) were reverse-transcribed into cDNA using Superscript® First-Strand Synthesis SuperMix (Thermo Fisher Scientific, Cat. #1683483). Quantitative real-time PCR was then performed using Power SYBR Green PCR Master Mix (Thermo Fisher Scientific, Cat. #4367659). The sequences of the primers used for qRT-PCR were obtained from previously published literature. Error bars represent technical replicates of each experiment.

Take `Nc1ncnc2c1ncn2[C@@H]1O[C@@H]2CO[P@](=O)(S)O[C@@H]3C(O)[C@@H](CO[P@@](=O)(S)O[C@H]2[C@H]1O)O[C@H]3n1cnc2c(N)ncnc21` (stereo partly drawn) [ADU-S100]: in test [1], the “interaction between heparin and STING agonist (CXCL10 ELISA)” value was “significant interaction”; the “interaction between heparin and STING agonist on the amount of CXCL10 in the media” value is on record as “significant interaction”. Besides, in test [2], the “STING activity (CXCL10 concentration) in the presence vs absence of heparin” value was “significantly higher STING activity”.

As for `O=C(NCCCNc1nc(Nc2cccc(CN3CCOCC3)c2)ncc1C1CC1)C1CCC1` [MRT TBK1 inhibitor, MRT67307], the “STING activity after addition of inhibitor to heparin and ADU” value in test [3] was “reduced the STING activity”. Besides, the “effect of heparin plus ADU on cytokines after TBK1 inhibitor” value in test [4] is “reversed”.

For the compound IFNg: interferon gamma (R&D systems), the “amount of CXCL10 in the media with heparin compared to interferon alone” value in test [5] is “not seen”.

Take cyclic GMP-AMP [cGAMP]: in test [6], the “STING activity (CXCL10 expression, qPCR), cGAMP in the absence of heparin” value is reported as “negligible STING activity”. Further, in test [1], the “interaction between heparin and STING agonist (CXCL10 ELISA)” value is on record as “significant interaction”; the “interaction between heparin and STING agonist on the amount of CXCL10 in the media” value is given as “significant interaction”.
